According to US20250034097A1, “MICROBIOCIDAL ISONICOTINIC AMIDE DERIVATIVES” (SYNGENTA CROP PROTECTION AG, priority 2021, published 2025):

What was measured:
[1] = system: Glomerella lagenarium; experiment: Glomerella lagenarium syn Colletotrichum lagenarium (anthracnose), growth inhibition in nutrient broth; type: cell-based; settings: Colletotrichum orbiculare, PDB broth, 24° C., 72 hours, photometric at 620 nm, compared to untreated control
Description: (§1) Conidia of the fungus from cryogenic storage were directly mixed into nutrient broth (PDB potato dextrose broth). A DMSO solution of the test compounds was placed into a microtiter plate (96-well format) and the nutrient broth containing the fungal spores was added to it. The test plates were incubated at 24° C. and the inhibition of growth was determined photometrically after 72 hours at 620 nm.

[2] = system: Pyrenophora teres; experiment: Pyrenophora teres (net blotch of barley), barley leaf segments, preventive; type: in vivo; settings: 200 ppm, assessed 4 dpi, compared to untreated control
Description: Barley leaf segments are placed on agar in multiwell plates (24-well format) and sprayed with test solutions. After drying, the leaf disks are inoculated with a spore suspension of the fungus. After appropriate incubation, the activity of a compound is assessed 4 dpi (days after inoculation) as preventive fungicidal activity.

[3] = system: Monographella nivalis; experiment: Monographella nivalis syn. Microdochium nivale (snow mould, foot rot), growth inhibition in nutrient broth; type: cell-based; settings: "at ppm" (concentration not given); PDB broth, 24° C., 72 hours, photometric at 620 nm; compared to untreated control
Description: as §1

[4] = system: Sclerotinia sclerotiorum; experiment: Sclerotinia sclerotiorum (cottony rot, white mold), growth inhibition in nutrient broth; type: cell-based; settings: 20 ppm; PDB broth, 24° C., 72 hours, photometric at 620 nm; compared to untreated control
Description: as §1, with “Mycelial fragments” for “Conidia”, “fungus prepared” for “fungus”, “a fresh liquid culture” for “cryogenic storage”

[5] = system: Alternaria solani; experiment: Alternaria solani (early blight of tomato), tomato leaf disks, preventive; type: in vivo; settings: 200 ppm, assessed 4 dpi, compared to untreated control
Description: Alternaria solani (Early Blight of Tomato) Tomato leaf disks are placed on water agar in multiwell plates (24-well format) and sprayed with test solutions. After drying, the leaf disks are inoculated with a spore suspension of the fungus. After appropriate incubation the activity of a compound is assessed 4 dpi (days post inoculation) as preventive fungicidal activity.

| Compound | inhibition of growth at 20 ppm [1] [%] | also measured |
| --- | --- | --- |
| Cc1ncc(Oc2cccc(C3CC3)c2)c(C(=O)NCCc2ccc(Cl)cc2Cl)n1 [Compound 1.1, 5-(3-cyclopropylphenoxy)-N-[2-(2,4-dichlorophenyl)ethyl]-2-methyl-pyrimidine-4-carboxamide] | ≥ 80 |  |
| Cc1ncc(Oc2cccc(C3CC3)c2)c(C(=O)NCC(F)c2ccc(Cl)cc2Cl)n1 (centres unmarked) [Compound 1.2, 5-(3-cyclopropylphenoxy)-N-[2-(2,4-dichlorophenyl)-2-fluoro-ethyl]-2-methyl-pyrimidine-4-carboxamide] | ≥ 80 | control of Pyrenophora teres [2]: at least 80%; control of Monographella nivalis [3]: at least 80%; control of Sclerotinia sclerotiorum [4]: at least 80%; control of Alternaria solani [5]: at least 80% |
| Cc1nncc(Oc2cccc(C3CC3)c2)c1C(=O)NCC(F)c1ccc(Cl)cc1Cl (centres unmarked) [Compound 2.1, 5-(3-cyclopropylphenoxy)-N-[2-(2,4-dichlorophenyl)-2-fluoro-ethyl]-3-methyl-pyridazine-4-carboxamide] | ≥ 80 |  |
| CC(C)Oc1nncc(Oc2cccc(C3CC3)c2)c1C(=O)NCC(F)c1ccc(Cl)cc1Cl (centres unmarked) [Compound 2.4, 5-(3-cyclopropylphenoxy)-N-[2-(2,4-dichlorophenyl)-2-fluoro-ethyl]-3-isopropoxy-pyridazine-4-carboxamide] | ≥ 80 |  |
| C=C(C)COc1nncc(Oc2cccc(C3CC3)c2)c1C(=O)NCC(F)c1ccc(Cl)cc1Cl (centres unmarked) [Compound 2.5, 5-(3-cyclopropylphenoxy)-N-[2-(2,4-dichlorophenyl)-2-fluoro-ethyl]-3-(2-methylallyloxy)pyridazine-4-carboxamide] | ≥ 80 |  |
| O=C(NCC(F)c1ccc(Cl)cc1Cl)c1c(Oc2cccc(C3CC3)c2)cnnc1C#CC1CC1 (centres unmarked) [Compound 2.6, 3-(2-cyclopropylethynyl)-5-(3-cyclopropylphenoxy)-N-[2-(2,4-dichlorophenyl)-2-fluoro-ethyl]pyridazine-4-carboxamide] | ≥ 80 |  |
| C=C(C)c1nncc(Oc2cccc(C3CC3)c2)c1C(=O)NCC(F)c1ccc(Cl)cc1Cl (centres unmarked) [Compound 2.7, 5-(3-cyclopropylphenoxy)-N-[2-(2,4-dichlorophenyl)-2-fluoro-ethyl]-3-isopropenyl-pyridazine-4-carboxamide] | ≥ 80 |  |
| O=C(NCC(F)c1ccc(Cl)cc1Cl)c1c(Oc2cccc(C3CC3)c2)cnnc1C1CC1 (centres unmarked) [Compound 2.8, 3-cyclopropyl-5-(3-cyclopropylphenoxy)-N-[2-(2,4-dichlorophenyl)-2-fluoro-ethyl]pyridazine-4-carboxamide] | ≥ 80 |  |
| CC(C)c1nncc(Oc2cccc(C3CC3)c2)c1C(=O)NCC(F)c1ccc(Cl)cc1Cl (centres unmarked) [Compound 2.9, 5-(3-cyclopropylphenoxy)-N-[2-(2,4-dichlorophenyl)-2-fluoro-ethyl]-3-isopropyl-pyridazine-4-carboxamide] | ≥ 80 |  |
| O=C(NCC(F)c1ccc(Cl)cc1Cl)c1cnncc1Oc1cccc(C2CC2)c1 (centres unmarked) [Compound 2.10, 5-(3-cyclopropylphenoxy)-N-[2-(2,4-dichlorophenyl)-2-fluoro-ethyl]pyridazine-4-carboxamide] | ≥ 80 |  |
| COc1nncc(Oc2cccc(C3CC3)c2)c1C(=O)NCCc1ccc(Cl)cc1Cl [Compound 2.12, 5-(3-cyclopropylphenoxy)-N-[2-(2,4-dichlorophenyl)ethyl]-3-methoxy-pyridazine-4-carboxamide] | ≥ 80 |  |
| O=C(NCC(F)c1ccc(Cl)cc1Cl)c1c(Oc2cccc(C3CC3)c2)cnnc1O (centres unmarked) [Compound 2.15, 5-(3-cyclopropylphenoxy)-N-[2-(2,4-dichlorophenyl)-2-fluoro-ethyl]-3-hydroxy-pyridazine-4-carboxamide] | ≥ 80 |  |
| CC(C)c1nncc(Oc2cccc(C3CC3)c2)c1C(=O)NC[C@H](F)c1ccc(Cl)cc1Cl [Compound 2.16, 5-(3-cyclopropylphenoxy)-N-[(2R)-2-(2,4-dichlorophenyl)-2-fluoro-ethyl]-3-isopropyl-pyridazine-4-carboxamide] | ≥ 80 |  |
